Results from CN113730373A, “一种递送姜黄素的zein-AOS复合纳米颗粒及其制备方法” (Zhejiang Ocean University ZJOU, priority 2021, dated 2021).

Assays:
[1] = Curcumin release in simulated gastric fluid (SGF); format: physicochemical; conditions: pH 2.0, pepsin, 37℃, 100 rpm, sampling to 90 min
[2] = DSC of thermal behaviour of nanoparticles; format: physicochemical

Compound: COc1cc(/C=C/C(=O)CC(=O)/C=C/c2ccc(O)c(OC)c2)ccc1O [Cur, 姜黄素]
- curcumin release rate [1]: 60.5%
- characteristic decomposition peak of curcumin [2]: 179.2 °C
